Measurements published in patent publication US6605730B2, “Intermediates for nematicidal pyrazoles” (priority 1998, dated 2003).
One block for each molecule: values may come before it.

Key:
Meloidogyne incognita [1] = test: Meloidogyne test (Test Example 5, infected soil, lettuce); type: in vivo; settings: active compound concentration 5 ppm; lettuce root galls
Protocol: (§1) Test nematode: Meloidogyne incognita
Solvent: 4 parts by weight of acetone
(§2) Emulsifier: 1 part by weight of alkylaryl polyglycol ether
(§3) To produce a suitable preparation of active compound, 1 part by weight of active compound is mixed with the stated amount of solvent and the stated amount of emulsifier is added and the concentrate is diluted with water to the desired concentration.
(§4) The active compound preparation is intimately mixed with soil which is heavily infected with the test nematodes. The treated soil is transferred into pots, lettuce seeds are sown and the pots are kept in the greenhouse.
(§5) After the desired time the lettuce roots are checked for infestation with nematodes (root galls) and the efficacy of the active compound in % is determined. The efficacy is 100% when infestation is avoided completely and 0% when infestation level is just as high as in the control plants in untreated but equally infested soil.

Meloidogyne incognita [2] = test: Meloidogyne test (Test Example 6, infected soil, lettuce); type: in vivo; settings: active compound concentration 20 ppm, lettuce root galls
Protocol: as §1
Solvent: 31 parts by weight of acetone
as §2, §3, §4, §5

[3] = system: southern root-knot nematodes; test: Test on root-knot nematodes (soil pot test, tomato); type: in vivo; settings: active ingredient 50 ppm in infested soil; tomato plants; after 4 weeks
Protocol: Fine granular formulations were prepared by impregnating 99 parts of pumice with 1 part each of active compounds.
Each of the active compounds prepared in the above-described manner was added to soil infested with southern root-knot nematodes so as to give an active ingredient concentration of 50 ppm, and intimately blended therein. This soil was charged into pots having an area of 1/5000 are, and about 20 tomato seeds (of the Kurihara variety) were sown in each pot. Tomato plants were grown in a greenhouse and, after 4 weeks, extracted so as not to injure their roots. Then, the root knot index and the controlling effect for each active compound were determined in the following manner.
0: No knot was formed (perfectly controlled).
1: Knots were formed to a slight degree.
2: Knots were formed to a moderate degree.
3: Knots were formed to a heavy degree.
4: Knots were formed to the heaviest degree (corresponding to no treatment). [formula]
According to the value of the controlling effect, the effectiveness was rated on the following basis.
a: The controlling effect was in the range of 100 to 71%.
b: The controlling effect was in the range of 70 to 50%.
c: The controlling effect was less than 50%.
d: The controlling effect was 0%.

[4] = system: Trichinella spiralis larvae; test: Test on Trichinella spiralis, Owen, larvae; type: in vivo; settings: 100 μg/ml; incubated at 19° C. for five days
Protocol: The method was carried out, in accordance with a method described in Tropenmed. Parasitol., vol. 32 (1981), 31-34, Jenkins, D. C., and Carrington, T. S. T. spiralis larvae were isolated from skeletal muscles and diaphragms of SPF/CFW1 mice and stored in sodium chloride solution ([…]) supplemented with Canested (20 μg/ml). The larvae (20 per estimation) were incubated in 2 ml of a solution with the following composition: Casitone 20; yeast extract 10; glucose 5; potassium dihydrogen phosphate 0.8; dipotassium hydrogen phosphate 0.8 g/l in water (500 ml; pH 7.2) and supplemented with Sisomycin (10 mg/l) and Canesten (1 mg/l).
The test compound (10 mg) was dissolved in dimethylsulfoxide (0.5 ml) and added to the incubation medium containing the larvae to give final concentrations of 100 μg/ml. The mixture was incubated at 19° C. for five days, after which activity was assessed according to Jenkins and Carrington a scale 1-3 where 1=weak activity (fewer live larvae than in the untreated control); 2=good activity (>=50% more dead larvae than in the untreated control) and 3=full activity (all larvae dead).

[5] = system: Nippostrongylus brasiliensis adult worms; test: Test on Nippostrongylus brasiliensis, Lane, adult (acetylcholine esterase activity of incubation medium); type: in vivo; settings: 100 μg/ml
Protocol: The method was carried out, in accordance with a method described in Parasitol. Res., vol. 73 (1987) 191, Rapson, E. B. et al. N.brasiliensis adult worms are isolated from the small intestine of female Wister rats and in sodium chloride solution ([…]) supplemented with Canesten (2 mg/l) and Sisomycin (20 mg/l). Worms (five male and five female) were incubated, according to the method of Rapson et al, and the incubation medium was adjusted so as to give final concentrations of 100 μg/ml. The resulting incubation medium was for acetylcholine esterase activity, as performed by Rapso et al. using a scale 0-3 where 0=no activity (<50% enzyme inhibition) and 1, 2 and 3 weak, good and full activity (50-75, >75 and 100% enzyme inhibition, respectively).

melting point: 61 to 65 °C
Molecule: CC(C)(C)c1ccc(-c2cc(-c3cccs3)[nH]n2)cc1

melting point: 129 to 132 °C
Molecule: CCCc1c(-c2ccc(Cl)cc2)n[nH]c1-c1cccs1

Molecule: C=C(C)C(=O)n1nc(-c2ccc(Cl)cc2)cc1-c1cccs1
kill (%) (Meloidogyne incognita [1]): 100%

Molecule: Fc1cccc(F)c1-c1cc(-c2cccs2)[nH]n1
kill in % after 14 d (Meloidogyne incognita [2]): 100%

Molecule: 1-acetyl-3-(4-chlorophenyl)-5-(2-thienyl)-1H-pyrazole and 1-acetyl-3-(2-thienyl)-5-(4-chlorophenyl)-1H-pyrazole [Compound 58]
Evaluation (controlling effect from root knot index) [3]: a (The controlling effect was in the range of 100 to 71%.)

Molecule: Fc1ccc(-c2cc(-c3cccs3)[nH]n2)cc1 [Compound 6, 3-(4-fluorophenyl)-5-(2-thienyl)-1H-pyrazole]
Evolution (activity, scale 1-3) [4]: 2 (2=good activity (>=50% more dead larvae than in the untreated control))
Evaluation (controlling effect from root knot index) [3]: a (The controlling effect was in the range of 100 to 71%.)
Evalution (acetylcholine esterase inhibition, scale 0-3) [5]: 3 (1, 2 and 3 weak, good and full activity (50-75, >75 and 100% enzyme inhibition, respectively))

Molecule: Clc1ccc(-c2cc(-c3cccs3)[nH]n2)cc1 [Compound 7, 3-(4-chlorophenyl)-5-(2-thienyl)-1H-pyrazole]
Evaluation (controlling effect from root knot index) [3]: a (The controlling effect was in the range of 100 to 71%.)
melting point: 217 °C

Molecule: Ic1ccc(-c2cc(-c3cccs3)[nH]n2)cc1 [Compound 9]
Evaluation (controlling effect from root knot index) [3]: a (The controlling effect was in the range of 100 to 71%.)
Evalution (acetylcholine esterase inhibition, scale 0-3) [5]: 3 (1, 2 and 3 weak, good and full activity (50-75, >75 and 100% enzyme inhibition, respectively))

Molecule: CCc1ccc(-c2cc(-c3cccs3)[nH]n2)cc1 [Compound 11]
Evaluation (controlling effect from root knot index) [3]: a (The controlling effect was in the range of 100 to 71%.)

Molecule: FC(F)(F)Oc1ccc(-c2cc(-c3cccs3)[nH]n2)cc1 [Compound 26]
Evaluation (controlling effect from root knot index) [3]: a (The controlling effect was in the range of 100 to 71%.)

Molecule: CCc1c(-c2ccc(Cl)cc2)n[nH]c1-c1cccs1 [Compound 46]
Evolution (activity, scale 1-3) [4]: 2 (2=good activity (>=50% more dead larvae than in the untreated control))
Evalution (acetylcholine esterase inhibition, scale 0-3) [5]: 3 (1, 2 and 3 weak, good and full activity (50-75, >75 and 100% enzyme inhibition, respectively))

Molecule: CSCc1c(-c2ccc(Cl)cc2)n[nH]c1-c1cccs1 [Compound 49, 3-(4-Chlorophenyl)-4-methylmercaptomethyl-5-(2-thienyl)-1H-pyrazole]
Evolution (activity, scale 1-3) [4]: 2 (2=good activity (>=50% more dead larvae than in the untreated control))
Evalution (acetylcholine esterase inhibition, scale 0-3) [5]: 3 (1, 2 and 3 weak, good and full activity (50-75, >75 and 100% enzyme inhibition, respectively))

Molecule: c1ccc(-c2cc(-c3cccs3)n[nH]2)cc1 [compound 1, 3-(2-Thienyl)-5-phenyl-1H-pyrazole, reference compound]
Evaluation (controlling effect from root knot index) [3]: c (The controlling effect was less than 50%.)

Molecule: COc1ccc(-c2cc(-c3cccs3)n[nH]2)cc1 [compound 2, 3-(2-Thienyl)-5-(4-methoxyphenyl)-1H-pyrazole, reference compound]
Evaluation (controlling effect from root knot index) [3]: d (The controlling effect was 0%.)
